Laboratory results as given in ChEMBL document CHEMBL1155316, “Benzo[d]imidazole inhibitors of Coactivator Associated Arginine Methyltransferase 1 (CARM1)--Hit to Lead studies” (Bioorg Med Chem Lett, 2009).
Blank lines part the entries; values can stand above or below the molecule they belong to. Activity calls are given as the source filed them. The calls are words filed in the database; no cut-off is given here.

Assays:
[1] = target: Protein arginine N-methyltransferase 3 (Homo sapiens, UniProt O60678); assay: Inhibition of PRMT3
[2] = target: Protein arginine N-methyltransferase 1 (Homo sapiens, UniProt Q99873); assay: Inhibition of PRMT1
[3] = target: T1, Histone-arginine methyltransferase CARM1 (Homo sapiens, UniProt Q86X55); assay: Inhibition of human CARM1 assessed as inhibition of histone3 methylation
T1 sequence (Q86X55 whole entry): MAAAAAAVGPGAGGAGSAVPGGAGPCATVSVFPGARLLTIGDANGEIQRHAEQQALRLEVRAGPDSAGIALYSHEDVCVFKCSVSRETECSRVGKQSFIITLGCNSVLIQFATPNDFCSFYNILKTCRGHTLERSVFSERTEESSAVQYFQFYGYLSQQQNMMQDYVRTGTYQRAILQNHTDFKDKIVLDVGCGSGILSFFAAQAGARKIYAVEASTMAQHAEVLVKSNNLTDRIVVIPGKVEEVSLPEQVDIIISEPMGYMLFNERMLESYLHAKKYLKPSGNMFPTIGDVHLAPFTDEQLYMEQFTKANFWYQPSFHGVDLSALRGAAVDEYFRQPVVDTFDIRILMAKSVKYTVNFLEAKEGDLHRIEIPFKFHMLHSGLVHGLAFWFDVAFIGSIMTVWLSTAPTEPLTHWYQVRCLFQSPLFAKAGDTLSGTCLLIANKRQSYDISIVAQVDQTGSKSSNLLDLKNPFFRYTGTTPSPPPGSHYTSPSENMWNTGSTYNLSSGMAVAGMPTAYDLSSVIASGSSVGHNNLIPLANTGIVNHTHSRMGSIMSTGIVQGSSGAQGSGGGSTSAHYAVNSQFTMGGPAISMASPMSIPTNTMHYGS

[4] = target: T2, Histone-arginine methyltransferase CARM1 (Homo sapiens) (UniProt Q86X55); assay: Inhibition of human CARM1 assessed as inhibition of HuR methylation
T2 sequence (whole entry): T1 sequence (Q86X55 whole entry)

[5] = target: T2, Histone-arginine methyltransferase CARM1 (Homo sapiens); assay: Inhibition of human CARM1 assessed as inhibition of PABP methylation

Sequence of Protein arginine N-methyltransferase 1 (Q99873 whole entry): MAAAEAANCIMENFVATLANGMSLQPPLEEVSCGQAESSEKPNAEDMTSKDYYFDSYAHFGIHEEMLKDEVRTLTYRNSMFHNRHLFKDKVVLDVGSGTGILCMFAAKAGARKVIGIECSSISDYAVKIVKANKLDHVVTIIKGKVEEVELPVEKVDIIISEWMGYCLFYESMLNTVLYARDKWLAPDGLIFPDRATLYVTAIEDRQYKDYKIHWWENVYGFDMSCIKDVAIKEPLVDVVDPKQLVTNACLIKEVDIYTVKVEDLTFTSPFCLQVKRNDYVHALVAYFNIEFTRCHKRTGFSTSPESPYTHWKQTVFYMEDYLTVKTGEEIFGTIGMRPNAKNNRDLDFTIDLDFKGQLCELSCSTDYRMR
Sequence of Protein arginine N-methyltransferase 3 (O60678 whole entry): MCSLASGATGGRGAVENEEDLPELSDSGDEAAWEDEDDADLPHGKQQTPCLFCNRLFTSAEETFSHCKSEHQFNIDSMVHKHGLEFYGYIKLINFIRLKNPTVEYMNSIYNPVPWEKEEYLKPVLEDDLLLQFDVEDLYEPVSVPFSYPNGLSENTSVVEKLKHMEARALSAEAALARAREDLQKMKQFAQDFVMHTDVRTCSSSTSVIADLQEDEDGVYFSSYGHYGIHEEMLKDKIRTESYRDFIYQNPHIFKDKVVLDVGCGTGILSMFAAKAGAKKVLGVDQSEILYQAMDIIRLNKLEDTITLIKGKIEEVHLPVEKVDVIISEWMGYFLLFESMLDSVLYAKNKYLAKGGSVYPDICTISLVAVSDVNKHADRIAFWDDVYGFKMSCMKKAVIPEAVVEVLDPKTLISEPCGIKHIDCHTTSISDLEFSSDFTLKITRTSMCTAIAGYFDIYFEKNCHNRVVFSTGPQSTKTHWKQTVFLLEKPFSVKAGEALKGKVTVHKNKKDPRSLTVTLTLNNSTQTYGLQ

Structure (SMILES): CNCCN1CCC(c2cc(C)c3nc(-c4c(OC)cccc4OC)[nH]c3c2)CC1
IC50 [1]: > 25 µM
IC50 [2]: > 25 µM

Structure (SMILES): C[C@H](N)C(=O)NCc1cccc(-n2nc(C(F)(F)F)cc2-c2nnc(-c3cccc4ncsc34)o2)c1
IC50 [3]: 0.04 µM

Structure (SMILES): CNCCN1CCC(c2cc(C)c3[nH]c(-c4c(OC)cccc4OC)nc3c2)CC1
Activity [4]: Active
Activity [5]: Active

Results, then the molecule that gave them:

IC50 [3]: > 30 µM
Structure (SMILES): CN[C@@H](C)CN1CCC(c2cc(C)c3nc(-c4cccnc4OC)[nH]c3c2)CC1

IC50 [3]: > 30 µM
Structure (SMILES): CN[C@H](C)CN1CCC(c2cc(C)c3nc(-c4cccnc4OC)[nH]c3c2)CC1
